Results: patent US20140030712A1, “GENOMIC APPROACH TO THE IDENTIFICATION OF BIOMARKERS FOR ANTIBIOTIC RESISTANCE AND SUSCEPTIBILITY IN CLINICAL ISOLATES OF BACTERIAL PATHOGENS” (priority 2011, published 2014)
Converted amounts (≈) assume the structure as drawn. Where two headings read alike, the source gives them in different places.

Key:
[1] = tested on: E. coli clinical isolates; assay: microbe, parasite or virus in culture; type: cell-based; conditions: Escherichia coli
Experimental: Clinical isolate collection and antibiotic resistance determination. […] Hospital-derived qualitative antibiotic susceptibility status denoted each isolate as susceptible (S), intermediate resistant (I), or resistance (R) to the drugs listed in Table 1. Quantitative MICs for the fluoroquinolones ciprofloxacin (CIP), gatifloxacin (GAT), levofloxacin (LVX), and norfloxacin (NOR) were determined in our laboratory as described (LBB).

[2] = tested on: E. coli BW25113 K-12 strain; conditions: deletion of any of three cryptic prophages (rac, e14, CP4-6); cited from earlier work
[3] = pool H01, n=2 isolates, MDR ≧5, read-out: Fluoroquinolone MIC
[4] = pool H02, n=5 isolates, MDR ≧3, read-out: Fluoroquinolone MIC
[5] = pool H03, n=5 isolates, MDR ≧3, read-out: Fluoroquinolone MIC
[6] = pool M01, n=10 isolates, MDR ≧3, read-out: Fluoroquinolone MIC
[7] = pool M02, n=10 isolates, MDR ≧5, read-out: Fluoroquinolone MIC
[8] = pool M03, n=13 isolates, no MDR, read-out: Fluoroquinolone MIC
[9] = pool M04, n=23 isolates, no MDR, read-out: Fluoroquinolone MIC
[10] = pool M05, n=16 isolates, MDR ≧5, read-out: Fluoroquinolone MIC
[11] = pool M06, n=13 isolates, MDR ≧3, read-out: Fluoroquinolone MIC
[12] = pool M07, n=33 isolates, MDR ≧3, read-out: Fluoroquinolone MIC
[13] = pool M08, n=3 isolates, No MDR, read-out: Fluoroquinolone MIC
[14] = pool M09, n=3 isolates, MDR ≧3, read-out: Fluoroquinolone MIC
[15] = pool M10, n=5 isolates, MDR ≧5, read-out: Fluoroquinolone MIC
[16] = pool M11, n=5 isolates, MDR ≧3, read-out: Fluoroquinolone MIC
[17] = pool S01, n=9 isolates, no MDR, read-out: Fluoroquinolone MIC
[18] = pool S02, n=9 isolates, no MDR, read-out: Fluoroquinolone MIC

## C[C@H]1COc2c(N3CCN(C)CC3)c(F)cc3c(=O)c(C(=O)O)cn1c23 [LVX, levofloxacin]
[1]; [3]
  MIC: 10 to 200 µg/mL (≈ 27.7 to 553 µM)
[1]; [4]
  MIC: 40 to 50 µg/mL (≈ 111 to 138 µM)
[1]; [5]
  MIC: 100 µg/mL (≈ 277 µM)
[1]; [6]
  MIC: 20 to 50 µg/mL (≈ 55.3 to 138 µM)
[1]; [7]
  MIC: 20 to 50 µg/mL (≈ 55.3 to 138 µM)
[1]; [8]
  MIC: 8 to 30 µg/mL (≈ 22.1 to 83 µM)
[1]; [9]
  MIC: 50 to 100 µg/mL (≈ 138 to 277 µM)
[1]; [10]
  MIC: 30 to 50 µg/mL (≈ 83 to 138 µM)
[1]; [11]
  MIC: 30 to 100 µg/mL (≈ 83 to 277 µM)
[1]; [12]
  MIC: 10 to 20 µg/mL (≈ 27.7 to 55.3 µM)
[1]; [13]
  MIC: 50 to 200 µg/mL (≈ 138 to 553 µM)
[1]; [14]
  MIC: 10 to 20 µg/mL (≈ 27.7 to 55.3 µM)
[1]; [15]
  MIC: 30 to 100 µg/mL (≈ 83 to 277 µM)
[1]; [16]
  MIC: 20 to 50 µg/mL (≈ 55.3 to 138 µM)
[1]; [17]
  MIC: 0.02 to 0.07 µg/mL (≈ 0.0553 to 0.194 µM)
[1]; [18]
  MIC: 0.03 to 0.17 µg/mL (≈ 0.083 to 0.47 µM)

## CCn1cc(C(=O)O)c(=O)c2cc(F)c(N3CCNCC3)cc21 [NOR, norfloxacin]
[1]; [3]
  MIC: 1000 µg/mL (≈ 3130 µM)
[1]; [4]
  MIC: 400 to 1000 µg/mL (≈ 1250 to 3130 µM)
[1]; [5]
  MIC: 400 to 1000 µg/mL (≈ 1250 to 3130 µM)
[1]; [6]
  MIC: 200 to 700 µg/mL (≈ 626 to 2190 µM)
[1]; [7]
  MIC: 200 to 700 µg/mL (≈ 626 to 2190 µM)
[1]; [8]
  MIC: 50 to 200 µg/mL (≈ 157 to 626 µM)
[1]; [9]
  MIC: 200 to 700 µg/mL (≈ 626 to 2190 µM)
[1]; [10]
  MIC: 50 to 300 µg/mL (≈ 157 to 939 µM)
[1]; [11]
  MIC: 200 to 400 µg/mL (≈ 626 to 1250 µM)
[1]; [12]
  MIC: 50 to 200 µg/mL (≈ 157 to 626 µM)
[1]; [13]
  MIC: 100 to 200 µg/mL (≈ 313 to 626 µM)
[1]; [14]
  MIC: 100 to 200 µg/mL (≈ 313 to 626 µM)
[1]; [15]
  MIC: 50 to 500 µg/mL (≈ 157 to 1570 µM)
[1]; [16]
  MIC: 50 to 200 µg/mL (≈ 157 to 626 µM)
[1]; [17]
  MIC: 0.03 to 0.09 µg/mL (≈ 0.0939 to 0.282 µM)
[1]; [18]
  MIC: 0.04 to 0.34 µg/mL (≈ 0.125 to 1.06 µM)
[1]; pools denoted "H", read-out: norfloxacin MICs
  MIC: > 1000 µg/mL

## COc1c(N2CCNC(C)C2)c(F)cc2c(=O)c(C(=O)O)cn(C3CC3)c12 (centres unmarked) [GAT, gatifloxacin]
[1]; [3]
  MIC: 10 to 30 µg/mL (≈ 26.6 to 79.9 µM)
[1]; [4]
  MIC: 10 to 30 µg/mL (≈ 26.6 to 79.9 µM)
[1]; [5]
  MIC: 50 to 200 µg/mL (≈ 133 to 533 µM)
[1]; [6]
  MIC: 10 to 30 µg/mL (≈ 26.6 to 79.9 µM)
[1]; [7]
  MIC: 10 to 30 µg/mL (≈ 26.6 to 79.9 µM)
[1]; [8]
  MIC: 8 to 30 µg/mL (≈ 21.3 to 79.9 µM)
[1]; [9]
  MIC: 30 to 100 µg/mL (≈ 79.9 to 266 µM)
[1]; [10]
  MIC: 10 to 20 µg/mL (≈ 26.6 to 53.3 µM)
[1]; [11]
  MIC: 10 to 20 µg/mL (≈ 26.6 to 53.3 µM)
[1]; [12]
  MIC: 10 µg/mL (≈ 26.6 µM)
[1]; [13]
  MIC: 100 to 300 µg/mL (≈ 266 to 799 µM)
[1]; [14]
  MIC: 20 µg/mL (≈ 53.3 µM)
[1]; [15]
  MIC: 20 to 100 µg/mL (≈ 53.3 to 266 µM)
[1]; [16]
  MIC: 10 to 50 µg/mL (≈ 26.6 to 133 µM)
[1]; [17]
  MIC: 0.01 to 0.02 µg/mL (≈ 0.0266 to 0.0533 µM)
[1]; [18]
  MIC: 0.01 to 0.09 µg/mL (≈ 0.0266 to 0.24 µM)

## CCn1cc(C(=O)O)c(=O)c2ccc(C)nc21 [nalidixic acid]
[2]
  nalidixic acid MICs: lowered
